Assay results taken from ChEMBL document CHEMBL3108676, “Discovery of a Novel Class of Imidazo[1,2-a]Pyridines with Potent PDGFR Activity and Oral Bioavailability” (ACS Med Chem Lett, 2014).
≈ marks a conversion by molar mass, not a printed value. Calls of active or inactive are those of the source. The rule behind the calls is not given here.

How the values were obtained:
[1] = molecular target: T1, Platelet-derived growth factor receptor beta (Mus musculus, UniProt P05622); assay: Inhibition of PDGF-induced PDGFRbeta phosphorylation in mouse NIH3T3 cells incubated for 1 hr prior to PDGF induction measured after 15 mins by fluorescence assay; format: cell-based
[2] = test system: Mus musculus; assay: In vivo inhibition of PDGFR phosphorylation in tumor of nu/nu nude mouse xenografted with rat C6 cells at 10 to 100 mg/kg, po qd after 12 hrs; format: functional, organism-based
[3] = test system: Mus musculus; assay: In vivo inhibition of PDGFR phosphorylation in tumor of nu/nu nude mouse xenografted with rat C6 cells administered as po qd after 2 to 6 hrs; format: functional, organism-based
[4] = molecular target: Mast/stem cell growth factor receptor Kit (Homo sapiens, UniProt P10721); assay: Inhibition of cKIT (unknown origin)
[5] = molecular target: Macrophage colony-stimulating factor 1 receptor (Homo sapiens, UniProt P07333)
Description: Inhibition of cFMS (unknown origin)

[6] = molecular target: Cytochrome P450 2D6 (Homo sapiens, UniProt P10635); assay: Inhibition of CYP2D6 (unknown origin); format: ADME
[7] = molecular target: Cytochrome P450 2C9 (Homo sapiens, UniProt P11712); assay: Inhibition of CYP2C9 (unknown origin); format: ADME
[8] = molecular target: Cytochrome P450 2C19 (Homo sapiens, UniProt P33261); assay: Inhibition of CYP2C19 (unknown origin); format: ADME
[9] = molecular target: Cytochrome P450 3A4 (Homo sapiens, UniProt P08684); assay: Inhibition of CYP3A4 (unknown origin); format: ADME
[10] = molecular target: T2, Cytochrome P450 1A2 (Homo sapiens, UniProt P05177); assay: Inhibition of CYP1A2 (unknown origin); format: ADME
T2 sequence (P05177 whole entry): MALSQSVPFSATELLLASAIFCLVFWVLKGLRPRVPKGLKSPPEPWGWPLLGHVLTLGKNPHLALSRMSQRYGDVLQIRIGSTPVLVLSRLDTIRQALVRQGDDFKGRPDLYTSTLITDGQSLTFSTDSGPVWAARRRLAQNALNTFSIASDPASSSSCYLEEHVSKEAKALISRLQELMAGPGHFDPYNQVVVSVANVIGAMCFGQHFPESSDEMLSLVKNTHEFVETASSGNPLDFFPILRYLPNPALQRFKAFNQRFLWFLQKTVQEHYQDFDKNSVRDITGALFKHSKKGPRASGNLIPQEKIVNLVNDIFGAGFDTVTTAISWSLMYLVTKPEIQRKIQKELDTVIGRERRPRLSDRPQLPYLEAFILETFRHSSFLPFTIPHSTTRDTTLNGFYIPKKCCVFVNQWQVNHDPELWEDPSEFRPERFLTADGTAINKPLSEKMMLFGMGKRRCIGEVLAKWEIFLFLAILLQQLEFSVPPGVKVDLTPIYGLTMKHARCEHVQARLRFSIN

[11] = molecular target: T1, Platelet-derived growth factor receptor beta; assay: Inhibition of PDGF-induced PDGFRbeta phosphorylation in mouse NIH3T3 cells incubated for 1 hr prior to PDGF induction measured after 15 mins by fluorescence assay in presence of 50% human plasma; format: cell-based
[12] = test system: LLC-PK1; assay: (§1) Apparent permeability across apical to basolateral side in pig LLC-PK1 cells; format: ADME, cell-based, Sus scrofa; conditions: llc-pk1
[13] = test system: Rattus norvegicus; assay: Toxicity in rat up to 50 mg/kg, po bid administered for 2 weeks; format: organism-based; design: dose 50 mg/kg, route oral; conditions: in vivo, 336 h
[14] = Oral bioavailability in cynomolgus monkey at 30 mg/kg; format: ADME, organism-based, Macaca fascicularis; conditions: in vivo
[15] = AUC in cynomolgus monkey at 30 mg/kg, po; format: ADME, organism-based, Macaca fascicularis; design: dose 30 mg/kg, route oral; conditions: plasma
[16] = Clearance in rat at 1 mg/kg, iv; format: ADME, organism-based; design: dose 1 mg/kg, route intravenous; conditions: in vivo
[17] = (§2) Oral bioavailability in rat at 10 mg/kg; format: ADME, organism-based; conditions: in vivo
[18] = molecular target: Voltage-gated inwardly rectifying potassium channel KCNH2 (Homo sapiens, UniProt Q12809); assay: Inhibition of human ERG
[19] = (§3) Cmax in rat at 10 mg/kg, po; format: ADME, organism-based; design: dose 10 mg/kg, route oral; conditions: in vivo
[20] = (§4) AUC in rat at 10 mg/kg, po; format: ADME, organism-based, Plasma; design: dose 10 mg/kg, route oral; conditions: plasma
[21] = Cmax in cynomolgus monkey at 30 mg/kg, po; format: ADME, organism-based, Macaca fascicularis; design: dose 30 mg/kg, route oral; conditions: in vivo
[22] = as §1; format: ADME, cell-based, Sus scrofa; conditions: LLC-PK1
[23] = Dissociation constant, pKa of the compound; format: physicochemical
[24] = test system: MDR1; assay: Apparent permeability across apical to basolateral side in pig LLC-PK1 cells expressing MDR1 assessed as compound recovery; format: ADME, cell-based, Sus scrofa; conditions: read-out: Papp
[25] = Solubility of the compound; format: physicochemical
[26] = test system: Rattus norvegicus; assay: as §2; format: ADME, organism-based; conditions: in vivo
[27] = test system: Rattus norvegicus; assay: as §3; format: ADME, organism-based; design: dose 10 mg/kg, route oral; conditions: in vivo
[28] = test system: Rattus norvegicus; assay: as §4; format: ADME, organism-based, Plasma; design: dose 10 mg/kg, route oral; conditions: in vivo

Chain of Cytochrome P450 3A4 (P08684 whole entry): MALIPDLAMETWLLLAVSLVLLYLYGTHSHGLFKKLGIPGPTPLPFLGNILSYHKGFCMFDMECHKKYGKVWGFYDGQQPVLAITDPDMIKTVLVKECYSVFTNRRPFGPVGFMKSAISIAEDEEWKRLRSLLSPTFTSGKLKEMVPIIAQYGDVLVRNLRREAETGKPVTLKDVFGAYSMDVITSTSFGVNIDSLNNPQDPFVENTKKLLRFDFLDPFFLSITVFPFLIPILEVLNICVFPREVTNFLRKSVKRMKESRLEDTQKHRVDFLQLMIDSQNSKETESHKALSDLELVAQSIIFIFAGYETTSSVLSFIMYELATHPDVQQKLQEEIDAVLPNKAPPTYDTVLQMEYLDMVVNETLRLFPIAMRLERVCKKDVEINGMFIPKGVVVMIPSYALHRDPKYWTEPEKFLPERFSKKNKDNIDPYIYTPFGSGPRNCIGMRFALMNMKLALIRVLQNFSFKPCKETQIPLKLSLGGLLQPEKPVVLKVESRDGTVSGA
T1 sequence (P05622 whole entry): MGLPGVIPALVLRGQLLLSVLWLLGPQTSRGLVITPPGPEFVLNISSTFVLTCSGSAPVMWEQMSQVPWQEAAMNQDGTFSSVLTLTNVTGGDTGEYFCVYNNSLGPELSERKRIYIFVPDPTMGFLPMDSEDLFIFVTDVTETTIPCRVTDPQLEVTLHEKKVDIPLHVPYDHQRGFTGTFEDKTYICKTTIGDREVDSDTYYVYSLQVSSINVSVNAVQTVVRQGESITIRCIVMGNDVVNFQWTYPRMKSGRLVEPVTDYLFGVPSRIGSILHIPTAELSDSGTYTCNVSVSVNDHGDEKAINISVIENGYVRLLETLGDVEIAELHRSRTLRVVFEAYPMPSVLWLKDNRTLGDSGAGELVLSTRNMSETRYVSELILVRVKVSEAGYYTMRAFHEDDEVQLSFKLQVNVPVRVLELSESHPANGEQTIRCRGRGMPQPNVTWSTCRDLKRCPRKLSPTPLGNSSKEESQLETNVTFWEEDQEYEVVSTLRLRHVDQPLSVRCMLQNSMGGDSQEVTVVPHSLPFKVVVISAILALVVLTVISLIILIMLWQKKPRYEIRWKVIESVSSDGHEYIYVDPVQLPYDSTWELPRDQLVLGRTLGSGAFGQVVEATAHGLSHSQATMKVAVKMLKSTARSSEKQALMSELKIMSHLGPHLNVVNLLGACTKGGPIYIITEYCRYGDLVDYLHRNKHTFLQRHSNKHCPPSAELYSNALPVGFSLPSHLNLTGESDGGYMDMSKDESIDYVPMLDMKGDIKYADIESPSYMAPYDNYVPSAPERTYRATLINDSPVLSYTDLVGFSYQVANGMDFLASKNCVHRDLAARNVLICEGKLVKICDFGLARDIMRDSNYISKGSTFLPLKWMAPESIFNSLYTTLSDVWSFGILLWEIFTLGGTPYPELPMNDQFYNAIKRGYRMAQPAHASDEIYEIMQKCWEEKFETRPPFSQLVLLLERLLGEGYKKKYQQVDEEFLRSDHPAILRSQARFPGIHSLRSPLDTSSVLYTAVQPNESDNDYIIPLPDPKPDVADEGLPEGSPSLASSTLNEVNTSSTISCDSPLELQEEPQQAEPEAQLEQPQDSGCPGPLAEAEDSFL
Chain of Cytochrome P450 2D6 (P10635 whole entry): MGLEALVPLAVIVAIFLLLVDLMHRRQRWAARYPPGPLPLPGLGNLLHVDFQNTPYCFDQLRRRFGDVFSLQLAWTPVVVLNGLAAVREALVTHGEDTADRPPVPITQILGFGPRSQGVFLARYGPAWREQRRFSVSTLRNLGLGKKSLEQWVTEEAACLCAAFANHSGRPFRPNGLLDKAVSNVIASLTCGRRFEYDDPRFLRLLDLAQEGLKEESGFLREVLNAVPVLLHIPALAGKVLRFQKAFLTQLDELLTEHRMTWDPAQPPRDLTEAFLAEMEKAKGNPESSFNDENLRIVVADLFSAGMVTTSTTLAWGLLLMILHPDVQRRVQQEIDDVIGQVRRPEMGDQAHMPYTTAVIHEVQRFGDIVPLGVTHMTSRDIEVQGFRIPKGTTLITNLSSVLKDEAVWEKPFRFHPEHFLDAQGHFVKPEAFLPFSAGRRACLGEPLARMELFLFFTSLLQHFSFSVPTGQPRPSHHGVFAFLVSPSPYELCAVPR
Chain of Cytochrome P450 2C9 (P11712 whole entry): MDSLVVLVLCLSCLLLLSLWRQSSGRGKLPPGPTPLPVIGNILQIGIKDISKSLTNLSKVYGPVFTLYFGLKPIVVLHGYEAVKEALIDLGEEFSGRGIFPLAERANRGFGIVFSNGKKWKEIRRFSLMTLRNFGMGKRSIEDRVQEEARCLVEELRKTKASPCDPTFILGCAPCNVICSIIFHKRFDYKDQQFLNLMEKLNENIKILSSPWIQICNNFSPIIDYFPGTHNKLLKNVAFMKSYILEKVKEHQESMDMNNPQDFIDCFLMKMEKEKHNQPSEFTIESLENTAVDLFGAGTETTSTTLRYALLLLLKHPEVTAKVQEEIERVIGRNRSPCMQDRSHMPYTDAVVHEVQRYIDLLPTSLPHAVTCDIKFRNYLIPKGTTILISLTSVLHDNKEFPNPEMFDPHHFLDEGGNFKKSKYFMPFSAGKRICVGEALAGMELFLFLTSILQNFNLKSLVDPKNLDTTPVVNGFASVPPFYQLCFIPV
Chain of Cytochrome P450 2C19 (P33261 whole entry): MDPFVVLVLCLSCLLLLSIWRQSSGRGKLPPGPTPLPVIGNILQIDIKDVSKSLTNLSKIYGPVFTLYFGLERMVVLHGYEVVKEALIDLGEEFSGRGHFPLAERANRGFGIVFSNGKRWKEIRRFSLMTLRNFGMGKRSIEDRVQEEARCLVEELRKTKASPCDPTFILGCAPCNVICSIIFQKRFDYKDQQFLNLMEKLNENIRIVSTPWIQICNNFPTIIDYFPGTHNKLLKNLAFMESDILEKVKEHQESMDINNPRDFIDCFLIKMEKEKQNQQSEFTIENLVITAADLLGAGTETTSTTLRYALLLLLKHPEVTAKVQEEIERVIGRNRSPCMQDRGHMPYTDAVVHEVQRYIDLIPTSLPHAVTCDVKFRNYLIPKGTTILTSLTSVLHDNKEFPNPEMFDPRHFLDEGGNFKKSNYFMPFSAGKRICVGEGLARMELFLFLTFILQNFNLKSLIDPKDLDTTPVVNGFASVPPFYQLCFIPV
Chain of Macrophage colony-stimulating factor 1 receptor (P07333 whole entry): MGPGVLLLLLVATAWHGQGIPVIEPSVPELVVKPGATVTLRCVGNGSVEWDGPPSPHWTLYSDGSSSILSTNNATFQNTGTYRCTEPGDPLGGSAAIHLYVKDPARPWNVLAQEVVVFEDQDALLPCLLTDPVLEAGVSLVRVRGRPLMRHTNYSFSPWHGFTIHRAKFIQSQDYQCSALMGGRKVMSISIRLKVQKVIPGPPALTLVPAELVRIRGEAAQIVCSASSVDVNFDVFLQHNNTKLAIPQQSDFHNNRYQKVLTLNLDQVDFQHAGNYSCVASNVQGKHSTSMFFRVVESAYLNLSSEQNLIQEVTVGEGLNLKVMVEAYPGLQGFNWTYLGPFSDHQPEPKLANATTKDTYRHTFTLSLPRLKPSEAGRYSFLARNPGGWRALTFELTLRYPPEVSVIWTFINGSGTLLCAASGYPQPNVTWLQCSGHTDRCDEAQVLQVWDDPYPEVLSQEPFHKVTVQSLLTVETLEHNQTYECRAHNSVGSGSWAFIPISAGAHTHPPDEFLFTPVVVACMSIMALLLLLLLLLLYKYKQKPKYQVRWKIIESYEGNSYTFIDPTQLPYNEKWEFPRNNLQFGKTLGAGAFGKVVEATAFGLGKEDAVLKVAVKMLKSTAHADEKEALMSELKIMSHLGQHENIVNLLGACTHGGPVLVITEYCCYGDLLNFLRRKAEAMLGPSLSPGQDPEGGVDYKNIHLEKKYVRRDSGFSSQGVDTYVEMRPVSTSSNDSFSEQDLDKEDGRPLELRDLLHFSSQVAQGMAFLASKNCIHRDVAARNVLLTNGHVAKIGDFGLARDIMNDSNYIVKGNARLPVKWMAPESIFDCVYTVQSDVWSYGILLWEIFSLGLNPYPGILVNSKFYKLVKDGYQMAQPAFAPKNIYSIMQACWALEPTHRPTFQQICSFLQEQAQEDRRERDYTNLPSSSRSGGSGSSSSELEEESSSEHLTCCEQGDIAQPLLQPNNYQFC
Chain of Mast/stem cell growth factor receptor Kit (P10721 whole entry): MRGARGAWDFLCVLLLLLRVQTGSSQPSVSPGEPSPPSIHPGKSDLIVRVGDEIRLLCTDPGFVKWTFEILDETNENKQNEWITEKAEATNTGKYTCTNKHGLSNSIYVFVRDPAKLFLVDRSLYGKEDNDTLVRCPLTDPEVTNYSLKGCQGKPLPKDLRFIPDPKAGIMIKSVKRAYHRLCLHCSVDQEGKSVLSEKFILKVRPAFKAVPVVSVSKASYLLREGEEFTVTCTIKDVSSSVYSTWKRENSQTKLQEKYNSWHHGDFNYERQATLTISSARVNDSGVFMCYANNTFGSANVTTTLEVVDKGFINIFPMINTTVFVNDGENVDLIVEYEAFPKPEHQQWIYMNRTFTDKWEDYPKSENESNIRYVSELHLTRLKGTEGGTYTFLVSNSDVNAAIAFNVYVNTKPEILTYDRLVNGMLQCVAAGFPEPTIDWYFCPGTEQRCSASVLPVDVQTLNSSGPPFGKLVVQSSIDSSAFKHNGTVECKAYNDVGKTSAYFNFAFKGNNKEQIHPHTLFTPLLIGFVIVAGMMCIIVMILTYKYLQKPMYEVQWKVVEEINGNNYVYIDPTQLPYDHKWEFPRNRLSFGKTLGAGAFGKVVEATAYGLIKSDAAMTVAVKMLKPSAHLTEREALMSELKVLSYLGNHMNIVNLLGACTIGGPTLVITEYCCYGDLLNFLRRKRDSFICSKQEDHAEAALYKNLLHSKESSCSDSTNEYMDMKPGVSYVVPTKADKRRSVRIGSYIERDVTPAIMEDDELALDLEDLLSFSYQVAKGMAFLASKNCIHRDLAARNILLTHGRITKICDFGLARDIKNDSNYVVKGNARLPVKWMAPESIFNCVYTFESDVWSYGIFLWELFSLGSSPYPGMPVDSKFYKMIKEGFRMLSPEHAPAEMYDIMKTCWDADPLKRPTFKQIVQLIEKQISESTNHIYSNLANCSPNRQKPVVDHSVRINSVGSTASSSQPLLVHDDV

## COCCOc1ccn2c(-c3ccc4cccc(OC5CCN(C)CC5)c4n3)cnc2c1
[1]
  IC50: 9 nM

## COCCOc1ccn2c(-c3ccc4cccc(O[C@@H]5CCNC[C@@H]5O)c4n3)cnc2c1 (racemic)
[1]
  IC50: 2 nM

## COCCOc1ccn2c(-c3ccc4cccc(O[C@@H]5CCNC[C@H]5F)c4n3)cnc2c1 [listing 1 of 2 here]
[2]
  inhibition: inactive
[3]
  inhibition: Dose-dependent effect

## COCCOc1ccn2c(-c3ccc4cccc(OCC5(F)CCNCC5)c4n3)cnc2c1
[1]
  IC50: 1 nM

## COCCOc1ccn2c(-c3ccc4cccc(OCC(C)(C)CN)c4n3)cnc2c1
[4]
  IC50: > 1000 nM
[1]
  IC50: 18 nM

## COCCOc1ccn2c(-c3ccc4cccc(O[C@H]5CC[C@H](N)CC5)c4n3)cnc2c1
[5]
  IC50: > 1000 nM
[1]
  IC50: 28 nM

## COCCOc1ccn2c(-c3ccc4cccc(OCC5CCNCC5)c4n3)cnc2c1
[5]
  IC50: > 1000 nM
[1]
  IC50: 34 nM

## COCCOc1ccn2c(-c3ccc4cccc(OCCN)c4n3)cnc2c1
[5]
  IC50: > 1000 nM
[1]
  IC50: 176 nM

## COCCOc1ccn2c(-c3ccc4cccc(O[C@H]5CN[C@H](C(=O)OC)C5)c4n3)cnc2c1
[5]
  IC50: > 1000 nM
[1]
  IC50: 958 nM

## COCCOc1ccn2c(-c3ccc4cccc(O[C@@H]5CCCNC5)c4n3)cnc2c1
[1]
  IC50: 72 nM

## COCCOc1ccn2c(-c3ccc4cccc(O[C@H]5CCNC[C@@H]5F)c4n3)cnc2c1
[4]
  IC50: 491 nM
[6]
  IC50: > 10000 nM
[7]
  IC50: > 10000 nM
[8]
  IC50: > 10000 nM
[9]
  IC50: > 10000 nM
[10]
  IC50: > 10000 nM
[11]
  IC50: 55 nM
[1]
  IC50: 3 nM

## COCCOc1ccn2c(-c3ccc4cccc(O[C@@H]5CCNC[C@H]5F)c4n3)cnc2c1 [listing 2 of 2 here]
[12]
  Papp: 3.7 ×10⁻⁶ cm/s
[13]
  Activity: Non-toxic
[14]
  bioavailability: 6%
[15]
  AUC: 950 ng·h/mL
[4]
  IC50: 430 nM
[16]
  clearance: 20 mL/min/kg
[17]
  bioavailability: 28%
[6]
  IC50: > 10000 nM
[7]
  IC50: > 10000 nM
[18]
  IC50: 3900 nM
[8]
  IC50: > 10000 nM
[3]
  EC50: 0.065 µg/mL (≈ 0.149 µM)
[10]
  IC50: > 10000 nM
[19]
  Cmax: 160 ng/mL
[11]
  IC50: 70 nM
[20]
  AUC: 2300 ng·h/mL
[21]
  Cmax: 190 ng/mL
[1]
  IC50: 3 nM

## COCCOc1ccn2c(-c3ccc4cccc(O[C@@H]5CNC[C@H]5OC)c4n3)cnc2c1 (racemic)
[5]
  IC50: > 1000 nM
[11]
  IC50: > 1000 nM
[1]
  IC50: 10 nM

## COCCOc1ccn2c(-c3ccc4cccc(O[C@@H]5CCNC[C@H]5O)c4n3)cnc2c1 (racemic)
[1]
  IC50: 3 nM

## COCCOc1ccn2c(-c3ccc4cccc(OCC5CCNC5)c4n3)cnc2c1 (racemic)
[11]
  IC50: 29 nM
[1]
  IC50: 1 nM

## COCCOc1ccn2c(-c3ccc4cccc(O[C@@H]5CCNC[C@@H]5F)c4n3)cnc2c1 (relative stereo)
[22]
  Papp A→B: 2.7 ×10⁻⁶ cm/s
[23]
  pKa: 7.5
[4]
  IC50: > 1000 nM
[16]
  clearance: 28 mL/min/kg
[17]
  bioavailability: 13%
[6]
  IC50: 5880 nM
[7]
  IC50: > 10000 nM
[8]
  IC50: > 10000 nM
[9]
  IC50: > 10000 nM
[10]
  IC50: > 10000 nM
[19]
  Cmax: 70 ng/mL
[11]
  IC50: 25 nM
[20]
  AUC: 730 ng·h/mL
[1]
  IC50: 4 nM
[24]
  recovery: 30%

## COCCOc1ccn2c(-c3ccc4cccc(OC5CCNCC5)c4n3)cnc2c1
[22]
  Papp A→B: 16.3 ×10⁻⁶ cm/s
[23]
  pKa: 9.3
[4]
  IC50: 961 nM
[16]
  clearance: 33 mL/min/kg
[17]
  bioavailability: 16%
[6]
  IC50: > 10000 nM
[7]
  IC50: > 10000 nM
[25]
  solubility: > 1000 µg/mL
[8]
  IC50: > 10000 nM
[5]
  IC50: > 1000 nM
[9]
  IC50: > 10000 nM
[10]
  IC50: > 10000 nM
[19]
  Cmax: 70 ng/mL
[11]
  IC50: 25 nM
[20]
  AUC: 800 ng·h/mL
[1]
  IC50: 3 nM
[24]
  recovery: 50%

## COCCOc1ccn2c(-c3ccc4cccc(OCc5cnc[nH]5)c4n3)cnc2c1
[5]
  IC50: > 1000 nM
[1]
  IC50: > 1000 nM

## COCCOc1ccn2c(-c3ccc4cccc(O[C@@H]5CN[C@H](C(=O)OC)C5)c4n3)cnc2c1
[5]
  IC50: > 1000 nM
[1]
  IC50: > 1000 nM

## COCCOc1ccn2c(-c3ccc4cccc(OCC5CNCCO5)c4n3)cnc2c1 (racemic)
[5]
  IC50: > 1000 nM
[1]
  IC50: 160 nM

## COCCOc1ccn2c(-c3ccc4cccc(O[C@@H]5CCNC[C@H]5F)c4n3)cnc2c1 (relative stereo)
[22]
  Papp A→B: 4.4 ×10⁻⁶ cm/s
[23]
  pKa: 7.4
[4]
  IC50: 682 nM
[26]
  F: 30%
[6]
  IC50: > 10000 nM
[7]
  IC50: > 10000 nM
[8]
  IC50: > 10000 nM
[9]
  IC50: > 10000 nM
[10]
  IC50: > 10000 nM
[27]
  Cmax: 120 ng/mL
[11]
  IC50: 63 nM
[28]
  AUC: 2100 ng·h/mL
[1]
  IC50: 4 nM
[24]
  recovery: 30%

## COCCOc1ccn2c(-c3ccc4cccc(O[C@H]5CCCNC5)c4n3)cnc2c1
[1]
  IC50: 5 nM
